Results taken from the supplement of paper PMC10627819.

Experiments:
B. subtilis 168 [1] = experiment: fitness (endpoint OD595 vs no drug) (fraction); higher = more growth
Method in brief: (§1)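 Bacterial fitness was scored as optical density at the stationary-phase transition relative to the robust mean of no-drug control wells. Scores are capped at 1. The growth data were OD595 readings every 30 min for 14 h at 37 °C, background-subtracted against the first reading, from 384-well plates inoculated at OD595 0.01 in TSB, LB Lennox or CY.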

S. aureus Newman [2] = experiment: as above
Method in brief: as §1

S. pneumoniae D39V [3] = experiment: as above
Method in brief: as §1

B. subtilis 168 [4] = experiment: Bliss interaction score (quartile over a dose matrix) (fitness difference); higher = more antagonism (negative = synergy)
Method in brief: (§2)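 The Bliss score is observed minus expected fitness, where expected fitness is the product of the single-drug fitness values inferred from the combination data. Fitness is the OD595 at the onset of stationary phase over the plate's robust no-drug mean, capped at 1. Scores are summarised by quartiles over technical, biological and donor/recipient replicates.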

S. aureus DSM 20231 = experiment: as above
Method in brief: as §2

S. aureus Newman [5] = experiment: as above
Method in brief: as §2

S. pneumoniae D39V [6] = experiment: as above
Method in brief: as §2

[7] = first compound 0.0098 µg/mL, partner 0.625 µg/mL
[8] = first compound 0.0098 µg/mL, partner 1.25 µg/mL
[9] = first compound 0.0195 µg/mL, partner 0.625 µg/mL
[10] = first compound 0.0195 µg/mL, partner 1.25 µg/mL
[11] = first compound 0.039 µg/mL, partner 1.25 µg/mL
[12] = first compound 0.039 µg/mL, partner 2.5 µg/mL
[13] = first compound 0.0375 µg/mL, partner 0.625 µg/mL
[14] = first compound 0.0375 µg/mL, partner 1.25 µg/mL
[15] = first compound 0.0375 µg/mL, partner 2.5 µg/mL
[16] = first compound 0.075 µg/mL, partner 0.625 µg/mL
[17] = first compound 0.075 µg/mL, partner 2.5 µg/mL
[18] = first compound 0.15 µg/mL, partner 2.5 µg/mL
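Throughout, for Bliss interaction score (quartile over a dose matrix): first quartile when negative (synergy) and third quartile when positive (antagonism).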
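Throughout, for fitness (endpoint OD595 vs no drug): OD595 on entry to stationary phase over no-drug wells; at most 1.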

## O=C(O)c1cn(C2CC2)c2cc(N3CCNCC3)c(F)cc2c1=O [Ciprofloxacin] + Cc1ncc([N+](=O)[O-])n1CCO [Metronidazole]
B. subtilis 168 [1]; [7]
  fitness: 0.951
B. subtilis 168 [1]; [8]
  fitness: 0.922
B. subtilis 168 [1]; first compound 0.0098 µg/mL, partner 2.5 µg/mL
  fitness: 0.89
B. subtilis 168 [1]; [9]
  fitness: 0.771
B. subtilis 168 [1]; [10]
  fitness: 0.75
B. subtilis 168 [1]; first compound 0.0195 µg/mL, partner 2.5 µg/mL
  fitness: 0.727
B. subtilis 168 [1]; [11]
  fitness: 0.29
B. subtilis 168 [1]; [12]
  fitness: 0.222
S. aureus Newman [2]; [13]
  fitness: 0.649
S. aureus Newman [2]; first compound 0.0375 µg/mL, partner 0.781 µg/mL, one replicate
  fitness: 0.653
S. aureus Newman [2]; [14]
  fitness: 0.694
S. aureus Newman [2]; first compound 0.0375 µg/mL, partner 1.562 µg/mL, one replicate
  fitness: 0.663
S. aureus Newman [2]; [15]
  fitness: 0.693
S. aureus Newman [2]; first compound 0.0375 µg/mL, partner 3.124 µg/mL, one replicate
  fitness: 0.644
S. aureus Newman [2]; [16]
  fitness: 0.725
S. aureus Newman [2]; first compound 0.075 µg/mL, partner 0.781 µg/mL, one replicate
  fitness: 0.648
S. aureus Newman [2]; first compound 0.075 µg/mL, partner 1.562 µg/mL, one replicate
  fitness: 0.736
S. aureus Newman [2]; [17]
  fitness: 0.732
S. aureus Newman [2]; first compound 0.075 µg/mL, partner 3.124 µg/mL, one replicate
  fitness: 0.703
S. aureus Newman [2]; first compound 0.15 µg/mL, partner 0.781 µg/mL, one replicate
  fitness: 0.0339
S. aureus Newman [2]; first compound 0.15 µg/mL, partner 1.562 µg/mL, one replicate
  fitness: 0.0507
S. aureus Newman [2]; [18]
  fitness: 0.0713
S. aureus Newman [2]; first compound 0.15 µg/mL, partner 3.124 µg/mL, one replicate
  fitness: 0.0416
S. pneumoniae D39V [3]; first compound 0.125 µg/mL, partner 1.073 µg/mL
  fitness: 0.935
S. pneumoniae D39V [3]; first compound 0.125 µg/mL, partner 1.25 µg/mL
  fitness: 0.98
S. pneumoniae D39V [3]; first compound 0.125 µg/mL, partner 2.145 µg/mL
  fitness: 0.894
S. pneumoniae D39V [3]; first compound 0.125 µg/mL, partner 2.5 µg/mL
  fitness: 0.987
S. pneumoniae D39V [3]; first compound 0.125 µg/mL, partner 4.29 µg/mL
  fitness: 0.916
S. pneumoniae D39V [3]; first compound 0.125 µg/mL, partner 5 µg/mL
  fitness: 0.983
S. pneumoniae D39V [3]; first compound 0.25 µg/mL, partner 1.073 µg/mL
  fitness: 0.923
S. pneumoniae D39V [3]; first compound 0.25 µg/mL, partner 1.25 µg/mL, one replicate
  fitness: 0.903
S. pneumoniae D39V [3]; first compound 0.25 µg/mL, partner 2.145 µg/mL
  fitness: 0.895
S. pneumoniae D39V [3]; first compound 0.25 µg/mL, partner 2.5 µg/mL, one replicate
  fitness: 0.911
S. pneumoniae D39V [3]; first compound 0.25 µg/mL, partner 4.29 µg/mL
  fitness: 0.892
S. pneumoniae D39V [3]; first compound 0.25 µg/mL, partner 5 µg/mL, one replicate
  fitness: 0.902
S. pneumoniae D39V [3]; first compound 0.5 µg/mL, partner 1.073 µg/mL
  fitness: 0.711
S. pneumoniae D39V [3]; first compound 0.5 µg/mL, partner 2.5 µg/mL
  fitness: 0.781
S. pneumoniae D39V [3]; first compound 0.5 µg/mL, partner 4.29 µg/mL
  fitness: 0.69
S. pneumoniae D39V [3]; first compound 0.5 µg/mL, partner 5 µg/mL
  fitness: 0.81
B. subtilis 168 [4]
  Bliss interaction score: 0.0696
S. aureus DSM 20231
  Bliss interaction score: 0.0471
S. aureus Newman [5]
  Bliss interaction score: 0.0782
S. pneumoniae D39V [6]
  Bliss interaction score: 0.0544

## O=C(O)c1cn(C2CC2)c2cc(N3CCNCC3)c(F)cc2c1=O [Ciprofloxacin] + COc1cccc2c1C(=O)c1c(O)c3c(c(O)c1C2=O)C[C@@](O)(C(=O)CO)C[C@@H]3O[C@H]1C[C@H](N)[C@H](O)[C@H](C)O1 [Doxorubicin]
B. subtilis 168 [1]; [7]
  fitness: 0.908
B. subtilis 168 [1]; [8]
  fitness: 0.872
B. subtilis 168 [1]; [9]
  fitness: 0.702
B. subtilis 168 [1]; [10]
  fitness: 0.628
B. subtilis 168 [1]; first compound 0.039 µg/mL, partner 0.625 µg/mL
  fitness: 0.186
B. subtilis 168 [1]; [11]
  fitness: 0.131
B. subtilis 168 [1]; [12]
  fitness: 0.037
S. aureus Newman [2]; [13]
  fitness: 0.634
S. aureus Newman [2]; [14]
  fitness: 0.667
S. aureus Newman [2]; [15]
  fitness: 0.658
S. aureus Newman [2]; [16]
  fitness: 0.689
S. aureus Newman [2]; first compound 0.075 µg/mL, partner 1.25 µg/mL
  fitness: 0.698
S. aureus Newman [2]; [17]
  fitness: 0.642
S. aureus Newman [2]; first compound 0.15 µg/mL, partner 1.25 µg/mL
  fitness: 0.203
S. aureus Newman [2]; [18]
  fitness: 0.15
S. pneumoniae D39V [3]; first compound 0.125 µg/mL, partner 0.25 µg/mL
  fitness: 0.899
S. pneumoniae D39V [3]; first compound 0.125 µg/mL, partner 0.5 µg/mL
  fitness: 0.914
S. pneumoniae D39V [3]; first compound 0.125 µg/mL, partner 1 µg/mL
  fitness: 0.821
S. pneumoniae D39V [3]; first compound 0.25 µg/mL, partner 0.25 µg/mL
  fitness: 0.745
S. pneumoniae D39V [3]; first compound 0.25 µg/mL, partner 0.5 µg/mL
  fitness: 0.774
S. pneumoniae D39V [3]; first compound 0.25 µg/mL, partner 1 µg/mL
  fitness: 0.694
B. subtilis 168 [4]
  Bliss interaction score: -0.0827
S. aureus DSM 20231
  Bliss interaction score: 0.154
S. aureus Newman [5]
  Bliss interaction score: 0.193
S. pneumoniae D39V [6]
  Bliss interaction score: -0.0454

## O=C(O)c1cn(C2CC2)c2cc(N3CCNCC3)c(F)cc2c1=O [Ciprofloxacin] + O=C(O[C@@H]1Cc2c(O)cc(O)cc2O[C@@H]1c1cc(O)c(O)c(O)c1)c1cc(O)c(O)c(O)c1 [EGCG]
B. subtilis 168 [1]; first compound 0.0098 µg/mL, partner 6.25 µg/mL
  fitness: 0.878
B. subtilis 168 [1]; first compound 0.0195 µg/mL, partner 6.25 µg/mL
  fitness: 0.741
B. subtilis 168 [1]; first compound 0.0195 µg/mL, partner 12.5 µg/mL
  fitness: 0.54
B. subtilis 168 [1]; first compound 0.0195 µg/mL, partner 25 µg/mL
  fitness: 0.375
B. subtilis 168 [1]; first compound 0.039 µg/mL, partner 12.5 µg/mL
  fitness: 0.35
B. subtilis 168 [1]; first compound 0.039 µg/mL, partner 25 µg/mL
  fitness: 0.295
S. aureus Newman [2]; first compound 0.0375 µg/mL, partner 12.5 µg/mL
  fitness: 0.666
S. aureus Newman [2]; first compound 0.0375 µg/mL, partner 25 µg/mL
  fitness: 0.557
S. aureus Newman [2]; first compound 0.0375 µg/mL, partner 50 µg/mL
  fitness: 0.544
S. aureus Newman [2]; first compound 0.075 µg/mL, partner 12.5 µg/mL
  fitness: 0.55
S. aureus Newman [2]; first compound 0.075 µg/mL, partner 25 µg/mL
  fitness: 0.534
S. aureus Newman [2]; first compound 0.075 µg/mL, partner 50 µg/mL
  fitness: 0.609
S. aureus Newman [2]; first compound 0.15 µg/mL, partner 12.5 µg/mL
  fitness: 0.0805
S. aureus Newman [2]; first compound 0.15 µg/mL, partner 25 µg/mL
  fitness: 0.0356
S. aureus Newman [2]; first compound 0.15 µg/mL, partner 50 µg/mL
  fitness: 0.053
S. pneumoniae D39V [3]; first compound 0.125 µg/mL, partner 12.5 µg/mL
  fitness: 0.931
S. pneumoniae D39V [3]; first compound 0.125 µg/mL, partner 25 µg/mL
  fitness: 0.907
S. pneumoniae D39V [3]; first compound 0.125 µg/mL, partner 50 µg/mL
  fitness: 0.971
S. pneumoniae D39V [3]; first compound 0.25 µg/mL, partner 12.5 µg/mL
  fitness: 0.796
S. pneumoniae D39V [3]; first compound 0.25 µg/mL, partner 25 µg/mL
  fitness: 0.889
S. pneumoniae D39V [3]; first compound 0.25 µg/mL, partner 50 µg/mL
  fitness: 0.69
B. subtilis 168 [4]
  Bliss interaction score: 0.149
S. aureus DSM 20231
  Bliss interaction score: 0.0949
S. aureus Newman [5]
  Bliss interaction score: -0.0544
S. pneumoniae D39V [6]
  Bliss interaction score: -0.0717
